{"source": "patent US10201564B2", "about": "“Methods of using inhaled nitric oxide gas for treatment of acute respiratory distress syndrome in children” (Mallinckrodt Hospital Products IP Limited, priority 2014, dated 2019)", "key": {"[1]": {"test_system": "patients with moderately severe Acute Lung Injury (ALI)", "assay": "Adult ALI/ARDS study, 5 ppm iNO versus placebo: efficacy and respiratory parameters", "assay_type": "in vivo, human", "settings": "for mortality, benefit versus control: adults", "method": "A large-scale, randomized, blinded, placebo-controlled study was carried out in the Intensive Care Units (ICUs) of 46 US hospitals to evaluate the efficacy of low-dose (5 ppm) iNO in 385 patients with moderately severe Acute Lung Injury (ALI). The primary endpoint of this study was number of days alive and off assisted breathing.\nPatients had acute lung injury (ALI), defined by a modification of American-European Consensus Conference criteria (PaO2/inspired oxygen concentration [FiO2] ratio of ≤250 mm Hg), due to causes other than severe sepsis. Patients with evidence of non-pulmonary system failure at the time of randomization and sepsis-induced ARDS were excluded. Patients were also excluded if they had sustained hypotension requiring vasopressor support, hemodynamic profiles supporting severe sepsis, severe head injury, severe burns, or evidence of other significant organ system dysfunction at baseline.\nPatients were randomly assigned to receive either inhaled placebo gas (nitrogen) or 5 ppm of iNO (INO Therapeutics Inc., Port Allen, La.). All patients, healthcare professionals, and investigators were blinded to the assigned treatment. Inhaled NO was administered via INOvent® delivery system (Datex-Ohmeda, Madison, Wis.) that blended treatment gas (nitrogen or NO at 100-ppm balance nitrogen) 1:20 with ventilator gases to achieve a target ppm value in the inspiratory limb of the ventilator.\nAll patients using the iNO delivery system received mechanical ventilatory support. Treatment continued with active or placebo gas until one of the following criteria were met: [1] end of trial (28 days); [2] death; or [3] adequate oxygenation (arterial oxygen saturation by pulse oximetry [SpO2]≥92% or PaO2 of ≥63 mm Hg) without treatment gas at ventilator settings of FiO2≤0.4 and positive end-expiratory pressure (PEEP) of ≤5 cm H2O. Decreases in treatment gas continued in 20% decrements (titrated down by 1 ppm for inhaled NO) every 30 minutes until either the treatment gas concentration reached 0% or oxygenation criteria were not satisfied. If oxygenation criteria were not met, treatment gas concentration was titrated up until they were again achieved. Increments of upward titration were determined by the clinician, based on degree of arterial desaturation.\nBaseline oxygenation measures included PaO2, arterial partial pressure of CO2 (PaCO2), SpO2, FiO2, PEEP, PaO2/FiO2 ratio, […], tidal volume, and mean airway pressure. Respiratory parameters (FiO2, PEEP, and PaO2/FiO2 ratio) were recorded on case report forms every 12 hours during mechanical ventilation.\nBetween-group differences in baseline clinical and demographic characteristics were assessed with the Fisher's exact test and the chi-square test for categorical variables and with the Wilcoxon rank sum test for continuous variables. Baseline oxygenation and respiratory/oxygenation parameters in the two groups were compared using Wilcoxon rank sum tests. The areas under the curve (AUCs) of FiO2, PEEP, and PaO2/FiO2 ratio were calculated using the trapezoidal rule. The null hypothesis that the respective AUCs were normally distributed was rejected employing the Shapiro-Wilk test. A Wilcoxon rank sum test was utilized to assess the differences in each median AUC between treatment groups. A p value <0.05 was considered significant."}, "[2]": {"test_system": "pediatric subjects with acute hypoxemic respiratory failure (AHRF)", "assay": "Pediatric AHRF study: percent methemoglobin levels", "assay_type": "in vivo, human", "settings": "5 ppm", "method": "Standardized ventilatory management and weaning procedures were used. Ventilatory management was used based on an “open lung approach” using positive end-expiratory pressure (PEEP) to increase lung volume and limiting tidal volumes to reduce plateau pressures. Subjects received nitric oxide for inhalation at 5 ppm or placebo (100% Grade 5 nitrogen gas) into the inspiratory limb of the ventilator circuit using a blinded version of the INOvent® delivery system. The subjects were treated until Day 28 or extubation, whichever occurred first. Subjects were assessed daily using a spontaneous breathing trial, according to the institution's standard of care. Arterial blood gases (ABG), ventilator settings, methemoglobin, oxygenation index, systolic blood pressure, diastolic blood pressure, Pediatric Risk of Mortality (PRISM) III score, and subject positioning (prone or supine) were performed/recorded at specified times during the study. Selected centers also performed plasma cytokine assays, bronchoalveolar lavage fluid (BALF) assays, and a 6-month follow-up assessment.\nThe following assessments were made at baseline: arterial blood gases, ventilator settings, methemoglobin, prone position, PRISM III score, oxygenation index, systolic and diastolic blood pressure, bronchoalveolar lavage fluid assay and plasma cytokine.\nThe following assessments were made at 4 hours±1 hour after the start of therapy: arterial blood gases, ventilator settings and methemoglobin.\nThe following assessments were made at 24 hours±2 hours after the start of therapy: arterial blood gases, ventilator settings, methemoglobin, systolic and diastolic blood pressure and plasma cytokine.\nPercent methemoglobin levels were obtained at baseline and at Hours 4 and 24. […] These levels were well below levels that would have necessitated discontinuation of treatment."}}}
{"smiles": "[N]=O", "note": "[Nitric Oxide, nitric oxide]", "values": [{"measurement": "days alive and meeting oxygenation criteria for extubation, benefit versus control", "setting": "[1]; 5 ppm iNO vs nitrogen gas, intent-to-treat", "result": "no significant benefit"}, {"measurement": "mortality, benefit versus control", "setting": "[1]; 5 ppm iNO vs nitrogen gas, intent-to-treat, listed as Inhaled NO", "result": "did not improve"}, {"measurement": "mortality, benefit versus control", "setting": "[1]; 5 ppm iNO vs nitrogen gas, intent-to-treat, listed as iNO", "result": "no significant benefit"}, {"measurement": "aggregate per-patient changes from baseline in supplemental oxygen, PEEP, or PaO2/FiO2 ratio, between groups", "setting": "[1]; during mechanical ventilation, iNO vs placebo", "result": "no significant differences"}, {"measurement": "partial pressure of arterial oxygen (PaO2)", "setting": "[1]; initial 24 hours of treatment, resolved by 48 hours, p<0.05", "result": "significant increase"}, {"measurement": "days alive and off assisted breathing, benefit versus control", "setting": "[1]; primary endpoint, 5 ppm iNO vs nitrogen gas, intent-to-treat", "result": "no significant benefit"}, {"measurement": "Methemoglobin level, Mean (SD)", "setting": "[2]; 4 Hours", "result": "0.64 (0.33) %"}, {"measurement": "Methemoglobin level, Median", "setting": "[2]; 4 Hours", "result": 0.8, "unit": "%"}, {"measurement": "Methemoglobin level, Mean (SD)", "setting": "[2]; 24 Hours", "result": "0.52 (0.37) %"}, {"measurement": "Methemoglobin level, Median", "setting": "[2]; 24 Hours", "result": 0.5, "unit": "%"}, {"measurement": "Methemoglobin level, Mean (SD)", "setting": "[2]; Baseline", "result": "0.56 (0.35) %"}, {"measurement": "Methemoglobin level, Median", "setting": "[2]; Baseline", "result": 0.5, "unit": "%"}, {"measurement": "Percent methemoglobin levels versus placebo group", "setting": "[2]; at most time points, in words", "result": "equal to or less than"}, {"measurement": "percent methemoglobin levels", "setting": "[2]; baseline, Hours 4 and 24, in words", "result": "within normal limits"}]}
